Experimental data published in publication PMC7557582, “Broad-Spectrum Antimicrobial Activity and Improved Stability of a D-Amino Acid Enantiomer of DMPC-10A, the Designed Derivative of Dermaseptin Truncates” (Antibiotics, 2020).
In brackets after ≈: the same amount, converted by molar mass. Non-standard residues stand in square brackets, D forms with d. Residues, ends and D or L forms follow the SMILES beside them. Cha = N[C@@H](CC1CCCCC1)C(=O)O

Experiments:
S. aureus (NCTC 10788) [1] = assay type: cell-based, Staphylococcus aureus
Protocol: (§6) Gram-positive bacteria Staphylococcus aureus (NCTC 10788) and Enterococcus faecalis (NCTC 12697) and Gram-negative bacteria Escherichia coli (NCTC 10418), Pseudomonas aeruginosa (ATCC 27853), and Klebsiella pneumoniae (ATCC 43816) were tested. […] All the bacterial strains were inoculated in Mueller Hinton broth (MHB), pH 7.4 (Oxiod, Basingstoke, UK) at 37 °C. Then, the log-phase bacteria were mixed with the peptide at the concentrations from 512 to 1 µM in two-fold dilution, in a 96 well-plate. The wells contained sterilized MHB and bacteria cultures were employed as a blank and growth control, respectively.

MRSA (NCTC 12493) = assay type: cell-based, methicillin-resistant S. aureus
Protocol: as §6

E. faecalis (NCTC 12697) = assay type: cell-based, Enterococcus faecalis
Protocol: as §6

E. coli (NCTC 10418) [2] = assay type: cell-based, Escherichia coli; conditions: NCTC 10418, pH 7.4
Protocol: as §6

[3] = test system: K. pneumoniae (ATCC 43816); assay type: cell-based, Klebsiella pneumoniae; conditions: ATCC 43816, pH 7.4
Protocol: as §6

[4] = test system: K. pneumoniae (ATCC BAA 1705); assay type: cell-based, Klebsiella pneumoniae; conditions: ATCC BAA 1705, pH 7.4
Protocol: as §6

[5] = test system: K. pneumoniae (ATCC BAA 2342); assay type: cell-based, Klebsiella pneumoniae; conditions: ATCC BAA 2342, pH 7.4
Protocol: as §6

[6] = test system: P. aeruginosa (ATCC 27853); assay type: cell-based, Pseudomonas aeruginosa; conditions: ATCC 27853, pH 7.4
Protocol: as §6

S. aureus (NCTC 10788) [7] = assay type: cell-based, Staphylococcus aureus; remark: listed apart in the source
Protocol: (§1) Furthermore, the antimicrobial activity in the presence of MgCl2, CaCl2, NaCl and 10% fetal bovine serum (FBS) was investigated. In detail, 2 and 5 mM of MgCl2 and CaCl2, and 150 and 375 mM NaCl, were applied, respectively. The supplements were added into the medium that was used for diluting the bacteria suspension. Then, the diluted bacteria culture was mixed with the peptide stock solution in the 96-well plate, as mentioned above. The assay was performed three times and each assay contained 5 replicates.

E. coli (NCTC 10418) [8] = assay type: cell-based, Escherichia coli
Protocol: as §1

trypsin = molecular target: T1, trypsin (Bos taurus, UniProt P00760); test: Enzyme stability assay, trypsin; assay type: in vitro ADME; conditions: peptide in PBS, peptide:trypsin 100:1 (m/m), time points 0-120 min, stopped with 10% TFA, RP-HPLC peak area, three replicates
T1 construct: gene PRSS1
T1 sequence (P00760 24-246): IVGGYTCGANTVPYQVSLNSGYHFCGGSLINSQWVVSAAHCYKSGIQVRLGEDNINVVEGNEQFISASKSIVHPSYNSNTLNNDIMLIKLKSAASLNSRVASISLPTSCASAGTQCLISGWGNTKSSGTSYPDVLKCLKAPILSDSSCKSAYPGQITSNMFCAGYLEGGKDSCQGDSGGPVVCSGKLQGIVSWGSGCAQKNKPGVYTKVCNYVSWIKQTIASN
Protocol: (§2) The peptides were dissolved in phosphate-buffered saline (PBS) and mixed with the respective enzyme (trypsin and chymotrypsin) with a ratio of 100:1 (m/m). Then, 135 µl of the reaction solution was transferred into a new vial. The hydrolysis reaction was immediately terminated by adding 15 µl of 10% TFA at the different time points (0, 5, 10, 20, 40, 60, 120 min). The mixture was then analyzed by reverse-phase HPLC and respective peak areas were calculated to obtain the residual amount of peptides at different times.

chymotrypsin = chymotrypsin (Bos taurus, UniProt P00766); test: Enzyme stability assay, chymotrypsin; assay type: in vitro ADME; conditions: peptide in PBS, peptide:chymotrypsin 100:1 (m/m)
Protocol: as §2

[9] = test system: S. aureus (NCTC 10788) biofilm; test: Inhibition of biofilm formation (crystal violet); assay type: cell-based, Staphylococcus aureus; conditions: 37 °C 24–48 h, crystal violet 595 nm
Protocol: (§3) The antibiofilm activity of synthetic peptides was evaluated via the inhibitory effect against the formation of biofilm and the eradication of mature biofilm, which were performed as the previously study with minor modifications. […] Then, the solution in each well was discarded. The biofilm was washed with PBS. Finally, the biofilm in each well was stained by 100 μL of 0.1% crystal violet solution and further dissolved by 30% acetic acid. The absorbance of dissolved crystal violet in each well was recorded at 595 nm. For the eradication of mature biofilm, biofilm was formed with incubation at 37 °C for 24–48 h. Then, the plate was washed with PBS and filled with the peptides which were prepared in the fresh medium. After treatment for 24 h at 37 °C, the plate was stained as mentioned above. Both assays were repeated three times, with 5 replicates each time.

[10] = test system: MRSA (NCTC 12493) biofilm; test: Inhibition of biofilm formation (crystal violet); assay type: cell-based, methicillin-resistant S. aureus; conditions: 37 °C 24–48 h, crystal violet 595 nm
Protocol: as §3

[11] = test system: K. pneumoniae (ATCC 43816) biofilm; test: Inhibition of biofilm formation (crystal violet); assay type: cell-based, Klebsiella pneumoniae; conditions: 37 °C 24–48 h, crystal violet 595 nm
Protocol: as §3

[12] = test system: S. aureus (NCTC 10788) biofilm; test: Eradication of mature biofilm (crystal violet); assay type: cell-based, Staphylococcus aureus; conditions: high concentrations ranging from 32 to 128 µM, 24 h treatment at 37 °C
Protocol: as §3

[13] = test system: MRSA (NCTC 12493) biofilm; test: Eradication of mature biofilm (crystal violet); assay type: cell-based, methicillin-resistant S. aureus; conditions: high concentrations ranging from 32 to 128 µM, 24 h treatment at 37 °C
Protocol: as §3

[14] = test system: K. pneumoniae (ATCC 43816) biofilm; test: Eradication of mature biofilm (crystal violet); assay type: cell-based, Klebsiella pneumoniae; conditions: at 64 µM and 128 µM, compared with S. aureus and MRSA
Protocol: as §3

[15] = test system: K. pneumoniae (ATCC BAA 1705); test: Checkerboard synergy assay; assay type: cell-based, Klebsiella pneumoniae
Protocol: (§4) The bacteria culture was prepared and diluted as performed in Section 4.4. Then, the bacteria dilution was mixed with a different combination of DMPC-10B and the antibiotics in the 96-well plate. The wells only contained individual peptides or antibiotics were applied as reference controls. Similarly, the turbidity of each well in the plate was measured at OD 550 nm, after incubation at 37 °C for 24 h. The fractional inhibitory concentration index (FICI) of each combination was defined as follows: FICI=MIC of DMPC-10B in combination/MIC of DMPC-10B alone+MIC of antibiotic in combination/MIC of antibiotic alone
(§5) The profile of the combination was interpreted as synergistic, additive, and antagonistic for FICI ≤ 0.5, 0.5 < FICI ≤ 4.0, and FICI > 4.0, respectively.

[16] = test system: K. pneumoniae (ATCC BAA 2342); test: Checkerboard synergy assay; assay type: cell-based, Klebsiella pneumoniae
Protocol: as §4, §5

[17] = test system: Galleria mellonella larvae infected with K. pneumoniae (ATCC 43816); test: Galleria mellonella larva infection model; assay type: in vivo; conditions: 20 mg/kg injected 1 h after infection, 5 days, 10 larvae per group
Protocol: The assessment of in vivo antimicrobial activity of DMPC-10B was performed using the larva of Galleria mellonella, as in the previous study, with minor modifications. The infection model was constructed by injecting 10 μL of MRSA (NCTC 12493) and K. pneumoniae (ATCC 43816) bacteria suspension (5 × 10^7 CFU/mL) which was prepared in PBS. After 1 h, each infected larva was further administered an injection of 10 μL of peptide solution at different doses of 5, 10, 20 mg/kg. The infected larva that was administered 10 μL of PBS was employed as a negative control, while 20 mg/kg of gentamicin was used as a positive control. Each group contained 10 larvae and all larvae were inspected every 24 h for 5 days (the first day was 12 h).

[18] = test system: healthy Galleria mellonella larvae; test: Toxicity to larvae without infection; assay type: in vivo; conditions: highest dose (20 mg/kg), 5 days

CC(C)C[C@@H](NC(=O)[C@H](C)N)C(=O)N[C@@H](Cc1c[nH]c2ccccc12)C(=O)N[C@H](CCCCN)C(=O)N[C@H](CCCCN)C(=O)N[C@H](CC(C)C)C(=O)N[C@H](CC(C)C)C(=O)N[C@H](CCCCN)C(=O)N[C@H](CCCCN)C(=O)N[C@@H](CC1CCCCC1)C(N)=O [DMPC-10B] (H-A[dL]W[dK][dK][dL][dL][dK][dK][Cha]-NH2; N-terminus assumed)
MBC (S. aureus (NCTC 10788) [1]; NCTC 10788, pH 7.4): 16 µM (≈ 20.5 µg/mL)
MIC (S. aureus (NCTC 10788) [1]; NCTC 10788, pH 7.4): 4 µM (≈ 5.12 µg/mL)
MBC (MRSA (NCTC 12493); NCTC 12493, pH 7.4): 8 µM (≈ 10.2 µg/mL)
MIC (MRSA (NCTC 12493); NCTC 12493, pH 7.4): 4 µM (≈ 5.12 µg/mL)
MBC (E. faecalis (NCTC 12697); NCTC 12697, pH 7.4): 64 µM (≈ 81.9 µg/mL)
MIC (E. faecalis (NCTC 12697); NCTC 12697, pH 7.4): 64 µM (≈ 81.9 µg/mL)
MBC (E. coli (NCTC 10418) [2]): 4 µM (≈ 5.12 µg/mL)
MIC (E. coli (NCTC 10418) [2]): 2 µM (≈ 2.56 µg/mL)
MBC [3]: 8 µM (≈ 10.2 µg/mL)
MIC [3]: 8 µM (≈ 10.2 µg/mL)
MBC [4]: 32 µM (≈ 41 µg/mL)
MIC [4]: 32 µM (≈ 41 µg/mL)
MBC [5]: 16 µM (≈ 20.5 µg/mL)
MIC [5]: 16 µM (≈ 20.5 µg/mL)
MBC [6]: 32 µM (≈ 41 µg/mL)
MIC [6]: 4 µM (≈ 5.12 µg/mL)
MIC with CaCl2 5 mM (S. aureus (NCTC 10788) [7]): 64 µM
MIC with FBS 10% (S. aureus (NCTC 10788) [7]): 8 µM
MIC with MgCl2 5 mM (S. aureus (NCTC 10788) [7]): 64 µM
MIC with NaCl 150 mM (S. aureus (NCTC 10788) [7]): 64 µM
MIC with NaCl 375 mM (S. aureus (NCTC 10788) [7]): 128 µM
MIC, no additive (S. aureus (NCTC 10788) [7]): 4 µM (≈ 5.12 µg/mL)
MIC with CaCl2 5 mM (E. coli (NCTC 10418) [8]): 32 µM
MIC with FBS 10% (E. coli (NCTC 10418) [8]): 4 µM
MIC with MgCl2 5 mM (E. coli (NCTC 10418) [8]): 32 µM
MIC with NaCl 150 mM (E. coli (NCTC 10418) [8]): 16 µM
MIC with NaCl 375 mM (E. coli (NCTC 10418) [8]): 32 µM
MIC, no additive (E. coli (NCTC 10418) [8]): 2 µM (≈ 2.56 µg/mL)
time within which trypsin could not degrade the peptide completely (trypsin): > 2 h
stability to hydrolysis by chymotrypsin (chymotrypsin; 120 min, RP-HPLC peak area, three replicates): exhibited resistance to the hydrolysis
time within which L-Trp site was not cleaved by chymotrypsin (chymotrypsin; RP-HPLC): > 2 h
inhibition of biofilm formation [9]: effectively inhibited
inhibition of biofilm formation [10]: effectively inhibited
inhibition of biofilm formation [11]: less potent
biofilm eradication effect [12]: around 50%
biofilm eradication effect [13]: around 50%
biofilm eradication effect [14]: more potent effects
combined MIC of DMPC-10B with norfloxacin ([15]; first value): 32/32
individual MIC of DMPC-10B (norfloxacin checkerboard) ([15]; second value): 32/32
combined MIC of DMPC-10B with norfloxacin ([16]; first value): 16/16
individual MIC of DMPC-10B (norfloxacin checkerboard) ([16]; second value): 16/16
survival of infected larvae [17]: around 70%
death of healthy larvae [18]: did not induce any death

CN[C@H](CC(C)C)C(=O)N[C@H]1C(=O)N[C@@H](CC(N)=O)C(=O)N[C@H]2C(=O)N[C@H]3C(=O)N[C@H](C(=O)N[C@H](C(=O)O)c4cc(O)cc(O)c4-c4cc3ccc4O)[C@H](O)c3ccc(c(Cl)c3)Oc3cc2cc(c3O[C@@H]2O[C@H](CO)[C@@H](O)[C@H](O)[C@H]2O[C@H]2C[C@](C)(N)[C@H](O)[C@H](C)O2)Oc2ccc(cc2Cl)[C@H]1O [Vancomycin, reference compound]
MIC of antibiotic (S. aureus (NCTC 10788) [1]; S. aureus (NCTC 10788), broth-dilution, MHB pH 7.4, 37 °C, positive control): 0.125/0.08 µg/mL
MIC of antibiotic (MRSA (NCTC 12493); MRSA (NCTC 12493), broth-dilution, MHB pH 7.4, 37 °C, positive control): 0.125/0.08 µg/mL
MIC of antibiotic (E. faecalis (NCTC 12697); E. faecalis (NCTC 12697), broth-dilution, MHB pH 7.4, 37 °C, positive control): 1/0.69 µg/mL
